The source of these data is PubChem BioAssay (NCI).

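Values below derive from 48-hour exposures of cells grown in 96-well plates, with endpoints linearly interpolated between the two concentrations bracketing the appropriate inhibition level. The concentration for 50% growth inhibition is given as GI50. Definition used: TGI = concentration required for complete inhibition of growth.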

Holding throughout (test): NCI-60 cell line screen, 48 h
For experiment [1], the system named is DU-145 prostate.
In experiment [2] the test system is HS 578T breast.
The subject of experiment [3] is BT-549 breast.
Experiment [4] relates to HCC-2998 colon.

On to `Cc1cc[c-]cc1.Fc1c[c-]c(-c2ccccn2)c(F)c1.[Pt+2].c1ccc(P(C[PH+](c2ccccc2)c2ccccc2)c2ccccc2)cc1`, for which the GI50 in experiment [1] is 2.99 µM; in experiment [2] it was 2.61 µM; in experiment [3] it was 2.62 µM; in experiment [4] it was 2.96 µM. The TGI in experiment [1] amounted to 12.8 µM; in experiment [2], 9.94 µM; in experiment [3], 12.2 µM; in experiment [4], 12.1 µM.

For `CCOC(=O)c1c[nH]c2oc(/C=N/N3CC(CN4CCOCC4)OC3=O)cc2c1=O` (stereo not given), the TGI in experiment [1], in experiment [2] and in experiment [4] was above 100 µM in each case.

For the molecule `C[C@]12CC[C@H](O)C[C@H]1CC[C@@H]1[C@@H]2CC[C@]2(C)[C@@H](C3=CC(=O)OC3)CC[C@]12O`, in experiment [1], the GI50 is 0.0325 µM. Further, the TGI in experiment [1] was 0.146 µM; in experiment [2] it was above 100 µM; in experiment [3], 0.134 µM; in experiment [4] it was 0.675 µM.

For the molecule `O=C(Nc1ccc(CO)cc1)c1coc2ccccc2c1=O`, the GI50 in experiment [1] was above 100 µM; in experiment [2] it was 16.2 µM; in experiment [3], 90.7 µM; in experiment [4] it was above 100 µM. For the same molecule, the TGI in experiment [1] was above 100 µM; in experiment [2], 78.1 µM; in experiment [3] it was above 100 µM; in experiment [4], above 100 µM.

Take `O=C(/C=C/c1cc(CN2CCOCC2)c(O)c2ncccc12)c1cc(CN2CCOCC2)c(O)c2ncccc12`: the GI50 was below 0.0219 µM in experiment [1], 0.0713 µM in experiment [2], 0.0287 µM in experiment [3] and 0.0506 µM in experiment [4]. Further, the TGI was above 100 µM in experiment [1], above 100 µM in experiment [2], 16.9 µM in experiment [3] and above 100 µM in experiment [4].

In the case of `N#C/C(=C/N1CCN(C(=O)c2ccco2)C1=S)C(=O)c1ccccc1`, in experiment [1], the GI50 is 5.01 µM and the TGI is above 100 µM. For the same molecule, in experiment [3], the GI50 is 7.77 µM and the TGI worked out at 32.3 µM.

With `CC(C)OC(=O)NNc1cc(Cl)ccc1Cl`, the TGI in experiment [1], in experiment [2], in experiment [3] and in experiment [4] was above 100 µM throughout.

As for `Nc1nc(SN=Nc2ccc(S(N)(=O)=O)cc2)c2[nH]cnc2n1`, the GI50 was 0.469 µM in experiment [1], 1.81 µM in experiment [2], 1.15 µM in experiment [3] and 0.508 µM in experiment [4]. Further, the TGI in experiment [1] was above 94.8 µM; in experiment [2] it was above 50.2 µM; in experiment [3] it was above 100 µM; in experiment [4], above 100 µM.

Consider `COc1ccc(-c2oc3cc(O)c(OC)c(O)c3c(=O)c2OC)cc1O`, for which the GI50 is 0.037 µM in experiment [2] and 1.22 µM in experiment [4]. The TGI in experiment [2] was 0.715 µM; in experiment [4] it was above 100 µM.

Turning to `N=C(N)SCc1cccc(-c2nc3ccccc3c(=O)o2)c1`, the TGI in experiment [1], in experiment [2], in experiment [3] and in experiment [4] was above 100 µM in each case.

In the case of `C=C1C(=O)O[C@H]2[C@H]1CC/C(COC(=O)c1ccc(Cl)nc1)=C\CC[C@@]1(C)O[C@@H]21`, the GI50 in experiment [1] was 1.75 µM; in experiment [2], 4.56 µM; in experiment [3], 1.95 µM; in experiment [4], 4.68 µM. In addition, the TGI in experiment [1] turned out to be 4.01 µM; in experiment [2], 36.2 µM; in experiment [3], 6.71 µM; in experiment [4], 18 µM.

As for `COc1ccc2c(c1)C(C)Cc1c(ncnc1-n1c(C)nc3ccccc31)N2C` (stereo not given), the GI50 in experiment [1] is 3.27 µM; in experiment [2], 4.12 µM; in experiment [3] it was 5.82 µM; in experiment [4], 4.09 µM. In addition, the TGI was determined as 13.4 µM in experiment [1], 25.3 µM in experiment [2], 30.6 µM in experiment [3] and 16.4 µM in experiment [4].

Consider `C[C@]12CC[C@@H]3c4ccc(O)cc4CC[C@H]3[C@@H]1CC[C@@H]2NS(=O)(=O)c1cccc(F)c1`, for which the GI50 in experiment [1] was 5.45 µM; in experiment [2], 3.88 µM; in experiment [3] it was 2.82 µM; in experiment [4], 5.27 µM. For the same molecule, the TGI was found to be 17.9 µM in experiment [1], 19.1 µM in experiment [2], 8.46 µM in experiment [3] and 16.9 µM in experiment [4].

For the molecule `COc1ccc(C(=O)COc2cccc(/C=C3\Oc4ccc5ccccc5c4C3=O)c2)cc1`, the GI50 in experiment [1] was 4.19 µM; in experiment [2], 5.39 µM; in experiment [3], 2.45 µM; in experiment [4] it was 15.3 µM. Moreover, the TGI in experiment [1] is 16 µM; in experiment [2] it was 25.8 µM; in experiment [3], 10.3 µM; in experiment [4] it was 28.8 µM.

`Cc1cc(S(=O)(=O)N/N=C(\Sc2cc(Cl)c(C)cc2S(N)(=O)=O)c2ccc(Cl)cc2)c(Cl)cc1Cl`: the GI50 in experiment [1] was above 100 µM; in experiment [2], above 100 µM; in experiment [3], 61.8 µM. For the same molecule, the TGI in experiment [1], in experiment [2] and in experiment [3] was above 100 µM in each case.

Consider `NC(CS/C(Cl)=C/Cl)C(=O)O` (stereo not given), for which the GI50 in experiment [1] was 16.5 µM; in experiment [2], 55.1 µM; in experiment [3], 12.1 µM; in experiment [4] it was 68.8 µM. Further, the TGI in experiment [1] was above 100 µM; in experiment [2], above 100 µM; in experiment [3], above 64.1 µM; in experiment [4], above 100 µM.

In the case of `O=C(Nc1ccc(-c2ccccc2)cc1)C1CCN(S(=O)(=O)c2ccccc2Cl)CC1`, the GI50 was 27.9 µM in experiment [1], 12.6 µM in experiment [2], 13.9 µM in experiment [3] and 59.2 µM in experiment [4]. Further, the TGI is above 100 µM in experiment [1], 71.4 µM in experiment [2], 56.3 µM in experiment [3] and above 100 µM in experiment [4].

For `C=C1C(=O)O[C@H]2/C=C(/C)C3=CC(=O)[C@@](C)(C[C@@H](OC(=O)/C(C)=C\C)C12)O3` (stereo not given in full), the TGI in experiment [1] is 8.99 µM; in experiment [2] it was 57.1 µM; in experiment [3], 3.11 µM; in experiment [4], 3.28 µM.

Turning to `CC(C)CNC(=O)O`, the TGI in experiment [1], in experiment [2] and in experiment [3] was above 100 µM in each case.

As for `N#CC(=NCCO)C1=C(O)c2ccccc2C1=O`, the TGI in experiment [1], in experiment [2] and in experiment [3] was above 100 µM throughout.
